From patent US20170087188A1, “WNT INDUCED MOTILITY AND ENHANCED ENGRAFTMENT OF CELLS” (OTTAWA HOSPITAL RESEARCH INSTITUTE, priority 2014, published 2017)
Entries after “also recorded” stand apart in the source; their conditions may differ.

System: mouse primary myoblasts
Test: Scratch migration assay, mouse primary myoblasts
Format: cell-based
Details: primary myoblasts; MDC at 50 μm
Description: Cellular polarization is indicative of increased motility (de Forges et al., 2012). Scratch assays were used to test whether Wnt7a and Fzd7 polarization affect cell motility. To exclude effects on the localization of cells arising from altered rates of proliferation, cells were treated with Mitomycin-C.
Fzd7 deficient cells migrated 59% less compared to heterozygous myoblasts and expression of Fzd7-Flag in Fzd7 knockout myoblasts restored migration to normal levels (FIG. 2D). […] To investigate whether the stimulation of myoblast migration is dose dependent, different concentrations of Wnt7a and Wnt3a were tested for their effect on migration.
Following plasmid transfection or application of Wnts (R&D Systems), the cells were treated with Mitomycin-C for 2 h (50 μg/mL). Subsequently, the monolayer of cells was scraped in a straight line. The plates were then extensively washed with culture medium and incubated for 24 h before analysis. Analysis was performed using DAPI staining after matching the reference points and enumeration of DAPI-stained nuclei in the scar was performed. Unless otherwise indicated, Wnt7a and Wnt3a were used at a concentration of 100 ng/mL in scratch assays. Monodansylcadaverine (MDC, 30432, Sigma) was used in scratch assays at a concentration of 50 μm.

Compound: CN(C)c1cccc2c(S(=O)(=O)NCCCCCN)cccc12 [monodansylcadaverine, reference compound]
- effect on Wnt7a mediated migration in scratch assays: prevents Wnt7a induced migration; also recorded: prevented Wnt7a mediated migration
